# Where a SMILES comes first, the peptide text is derived from it. Bridges are numbered along the chain shown (N, C = ends). [ ]: non-standard residue; d: D form. Hyp = O=C(O)[C@@H]1C[C@@H](O)CN1; Pen = CC(C)(S)[C@H](N)C(=O)O; dDab = NCC[C@@H](N)C(=O)O; Dab = NCC[C@H](N)C(=O)O
# Experiments:
# Format in all cases: cell-based
# [1] = tested on: human red blood cells (hRBC); conditions: red cells of human, 1 h, 200 μg/mL
# Method in brief: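 Peptides at 200 μg/mL incubated 1 h at 37 °C with 20% (v/v) washed human RBC, shaking. Hemolysis from supernatant OD540, expressed as percent of 2.5% Triton X-100 lysis, with PBS as 0%.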
# [2] = tested on: Escherichia coli MCR-1 Af 45; conditions: MCR-1 Af 45
# Method in brief: (§1)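 CLSI broth microdilution, slightly modified: cation-adjusted Mueller-Hinton II broth with about 5×10^5 CFU/mL from a 0.5 McFarland suspension, and two-fold serial peptide dilutions with Polysorbate 80 at 0.002% final. MIC (μg/mL) was the lowest concentration with no visible growth after 18-20 hours at 35° C.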
# [3] = tested on: Klebsiella pneumoniae SSI3010; conditions: SSI3010
# Method in brief: as §1
# [4] = tested on: Escherichia coli ATCC 25922; conditions: ATCC 25922
# Method in brief: as §1
Escherichia coli MCR-1 Af45 MIC [2],Klebsiella pneumoniae SSI3010 MIC [3],Escherichia coli ATCC 25922 MIC [4],Compound,Hemolysis at 0.2 g/L [1]
0.125 µg/mL,0.25 µg/mL,0.125 µg/mL,"CC[C@H](C)[C@H](NC(=O)[C@@H]1C[C@@H](O)CN1C(=O)[C@@H](N)C(C)C)C(=O)N[C@@H]1C(=O)N[C@@H](Cc2ccc(O)cc2)C(=O)N[C@@H](CO)C(=O)N[C@@H](CC(N)=O)C(=O)N[C@@H](CCCNC(=N)N)C(=O)N[C@@H](CCN)C(=O)N[C@@H](CC(N)=O)C(=O)N[C@H](CCN)C(=O)N[C@@H](CCCCN)C(=O)N[C@@H](CCN)C(=O)N[C@@H](CCN)C(=O)N[C@H](C(=O)N[C@@H](Cc2ccc(O)cc2)C(=O)O)CSSC1(C)C [Example 31, Val-Hyp-Ile-Pen-Tyr-Ser-Asn-Arg-Dab-Asn-^DDab-Lys-Dab-Dab-Cys-Tyr] (H-V[Hyp]I[Pen]YSNR[Dab]N[dDab]K[Dab][Dab]CY-OH; disulfide 4-15)",<1%
0.5 µg/mL,0.5 µg/mL,1 µg/mL,"CC[C@H](C)[C@H](NC(=O)[C@@H]1C[C@@H](O)CN1C(=O)[C@@H](N)C(C)C)C(=O)N[C@@H]1C(=O)N[C@@H](Cc2ccc(O)cc2)C(=O)N[C@@H](CCN)C(=O)N[C@@H](CC(N)=O)C(=O)N[C@@H](CCCNC(=N)N)C(=O)N[C@@H](CCN)C(=O)N[C@@H](CO)C(=O)N[C@H](CCN)C(=O)N[C@@H](CCCCN)C(=O)N[C@@H](CCN)C(=O)N[C@@H](CO)C(=O)N[C@H](C(=O)N[C@@H](Cc2ccc(O)cc2)C(=O)O)CSSC1(C)C [Example 32, Val-Hyp-Ile-Pen-Tyr-Dab-Asn-Arg-Dab-Ser-^DDab-Lys-Dab-Ser-Cys-Tyr] (H-V[Hyp]I[Pen]Y[Dab]NR[Dab]S[dDab]K[Dab]SCY-OH; disulfide 4-15)",<1%
0.125 µg/mL,0.125 µg/mL,0.125 µg/mL,"CC[C@H](C)[C@H](NC(=O)[C@@H]1C[C@@H](O)CN1C(=O)[C@@H](N)C(C)C)C(=O)N[C@@H]1C(=O)N[C@@H](Cc2ccc(O)cc2)C(=O)N[C@@H](CO)C(=O)N[C@@H](CC(N)=O)C(=O)N[C@@H](CCCNC(=N)N)C(=O)N[C@@H](CCN)C(=O)N[C@@H](CO)C(=O)N[C@H](CCN)C(=O)N[C@@H](CCCCN)C(=O)N[C@@H](CCN)C(=O)N[C@@H](CCN)C(=O)N[C@H](C(=O)N[C@@H](Cc2ccc(O)cc2)C(=O)O)CSSC1(C)C [Example 33, Val-Hyp-Ile-Pen-Tyr-Ser-Asn-Arg-Dab-Ser-^DDab-Lys-Dab-Dab-Cys-Tyr] (H-V[Hyp]I[Pen]YSNR[Dab]S[dDab]K[Dab][Dab]CY-OH; disulfide 4-15)",<1%
0.0625 µg/mL,0.25 µg/mL,0.125 µg/mL,"CC[C@H](C)[C@H](NC(=O)[C@@H]1C[C@@H](O)CN1C(=O)[C@@H](N)C(C)C)C(=O)N[C@@H]1C(=O)N[C@@H](Cc2ccc(O)cc2)C(=O)N[C@@H](CO)C(=O)N[C@@H](CC(N)=O)C(=O)N[C@@H](CCCNC(=N)N)C(=O)N[C@@H](CCN)C(=O)N[C@@H]([C@@H](C)O)C(=O)N[C@H](CCCCN)C(=O)N[C@@H](CCCCN)C(=O)N[C@@H](CCN)C(=O)N[C@@H](CCN)C(=O)N[C@H](C(=O)N[C@@H](Cc2ccc(O)cc2)C(=O)O)CSSC1(C)C [Example 35, Val-Hyp-Ile-Pen-Tyr-Ser-Asn-Arg-Dab-Thr-^DLys-Lys-Dab-Dab-Cys-Tyr] (H-V[Hyp]I[Pen]YSNR[Dab]T[dK]K[Dab][Dab]CY-OH; disulfide 4-15)",<1%
